Test results reported in patent US20250186468A1, “METHOD FOR TREATING PATIENT WITH BRCA-MUTATED CANCER” (ASCENTAWITS PHARMACEUTICALS, LTD., priority 2022, published 2025).

Assays:
[1] = system: Capan-1 (human-derived pancreatic cancer cell line, BRCA2 pathogenic mutation); experiment: Cell proliferation assay (CTG), in vitro cytotoxicity; format: cell-based; settings: Homo sapiens, Capan-1 cells, 72 hours
Excerpt: (§1) The following cell lines were used as research objects in this experiment, which were BRCA pathogenic mutant cell line Capan-1 (human-derived pancreatic cancer cell line, wherein the BRCA2 pathogenic mutation site was p.S1982RfsTer22), BRCA non-pathogenic mutant cell line PLC/PRF/5 (human-derived liver cancer cell line) and HT29 (human-derived colon cancer cell line), respectively.
(§2) Cell proliferation assay was used to detect the sensitivity of various cells to AST-3424, i.e., IC50 value. Unless otherwise specified, IC50 value was measured by the following experimental method:
(§3) a) Different cells were cultured in different media with fetal bovine serum (Table 2), added with 1% double antibody, and placed at 37° C.; and 5% CO2 for culturing.
(§4) a) The cells were routinely cultured until the cell saturation was 80%-90%, and when the required quantity was reached, the cells were collected.
(§5) b) The cells were resuspended with the corresponding medium and cell counts were performed to prepare a cell suspension with appropriate density.
(§6) d) Cells were incubated overnight at 37° C., 5% CO2 in an incubator.
(§7) a) The compound was prepared according to the experimental requirements.
(§8) b) Blank control well was cells added with 0.5% DMSO as high read control well.
(§9) c) The well only with medium and without cell was used as low read control well.
(§10) a) After 24 hours of cell plating, the compound was used alone and each well was supplied with 99 μL of growth medium, then added with 1 μL of 200X compound, shaken gently to ensure even mixing, and then placed at 37° C., 5% CO2 in an incubator.
(§11) b) The cell plate was placed in the incubator for 72 hours.
(§12) a) The cell plate to be tested was placed at room temperature to equilibrium for 30 minutes, and 100 μL of medium was discarded per well.
(§13) b) 100 μL of CTG reagent (CelltiterGlo kit) was added to each well, placed at a fast shaker to shake for 2 minutes, and placed at room temperature away from light for 30 minutes.
(§14) c) The chemiluminescence signal value was read with the Envision instrument.
(§15) IC50 was calculated with GraphPad Prism 8 software, and the IC50 (half maximal inhibitory concentration) of the compound was obtained by using the following nonlinear fitting formula:
(§16) [formula] • X: Compound concentration log value, Y: inhibition rate (% inhibition)

[2] = system: HT29 (human-derived colon cancer cell line, BRCA non-pathogenic mutant); experiment: as above; format: cell-based
Excerpt: as §1, §2, §3, §4, §5, §6, §7, §8, §9, §10, §11, §12, §13, §14, §15, §16

[3] = system: PLC/PRF/5 (human-derived liver cancer cell line, BRCA non-pathogenic mutant); experiment: as above; format: cell-based
Excerpt: as §1, §2, §3, §4, §5, §6, §7, §8, §9, §10, §11, §12, §13, §14, §15, §16

[4] = system: HuPrime® gastric cancer GA6201 model (BRCA2 pathogenic mutant)
Excerpt: (§17) If not specified, the relevant parameters in the following chart were defined as follows: • 1. Data were expressed as “mean±standard error”, i.e., x ±S; • 2. T/C % =TRTV/CRTV×100% or T/C % =TTV/CTV×100% (TRTV: mean RTV of treatment group; CRTV: mean RTV of vehicle control group; RTV=Vt/V0, V0 was the tumor volume of the animal at the time of grouping, Vt was the tumor volume of the animal after treatment, the same below); TGI % =(1-T/C)×100% (T and C were the mean relative tumor volumes (RTV) of the treatment and control groups at a specific time point, respectively). • 3. CR ratio (complete clearance) represented the ratio of the number of animals with complete tumor clearance to the number of animals in the group corresponding to the drug dose group. • 4. P Value, i.e., the statistical P measurement value. P<0.05 was defined as a significant difference.
BALB/c nude mice were subcutaneously inoculated with HuPrime® model GA6201 tumor blocks to establish the subcutaneous transplantation tumor model of human gastric cancer. The test was divided into test drug Ifosfamide 60 mg/kg group, test drug Compound S 2.5 mg/kg group and normal saline (pH 7.0-7.6) vehicle control group, with 5 mice in each group. […] Ifosfamide 60 mg/kg group was administered by intraperitoneal injection, for five consecutive days and rested for two days in each week, for a total of two weeks, and observed for five weeks.

[5] = system: HuPrime® lung cancer LU5173 model (non-BRCA pathogenic mutant)
Excerpt: as §17
NOD/SCID female mice were subcutaneously inoculated with the HuPrime® model LU5173 tumor blocks to establish a subcutaneous transplantation tumor model of human lung cancer. The test was divided into positive control drug Ifosfamide 60 mg/kg group, test drug Compound S 4 mg/kg group and 7.5% absolute ethanol+7.5% polyoxyethylene (35) castor oil+85% glucose injection D5W vehicle control group, etc., with 6 mice in each group. Among them, 7.5% absolute ethanol+7.5% polyoxyethylene (35) castor oil+85% glucose injection D5W vehicle control group and test drug Compound S group were administered through tail vein injection, once a week, for three consecutive weeks. Positive control drug Ifosfamide 60 mg/kg group was administered by intraperitoneal injection, once a day, for 5 consecutive days, and rested for two days, for two consecutive weeks.

[6] = Compound S 2.5 mg/kg tail vein once a week, three weeks, Day 38
[7] = Compound S 4 mg/kg i.v. once a week, three weeks, Day 32 after the first administration

Compound: O=[N+]([O-])c1ccc(C(OP(=O)(N2CC2)N2CC2)C(F)(F)F)cc1Oc1ccc(-c2ccc(F)cc2)c(F)c1 (stereo not drawn) [Compound S]
- IC50 [1]: 0.403 µM
- IC50 ([2]; Homo sapiens, HT-29, HT29 cells, 72 hours, CTG): 4.88 µM
- Fold Change ([2]; IC50 in HT29 relative to IC50 in Capan-1): 12
- IC50 ([3]; Homo sapiens, PLC/PRF/5 cells, 72 hours, CTG): 2.02 µM
- Fold Change ([3]; IC50 in PLC/PRF/5 relative to IC50 in Capan-1): 5
- Relative tumor volume (x ± S) [4, 6]: 0.29 ± 0.08
- T/C [4, 6]: 3.15%
- TGI [4, 6]: 96.85%
- Tumor volume (x ± S) [4, 6]: 28.69 ± 8.2 mm^3
- body weight / tolerability ([4]; Compound S 2.5 mg/kg treatment group): no body weight loss
- Relative tumor volume (x ± S) [5, 7]: 10.22 ± 1.11 mm^3
- T/C [5, 7]: 47.42%
- TGI [5, 7]: 52.58%
- Tumor volume (x ± S) [5, 7]: 1107.01 ± 162.08 mm^3
- body weight / tolerability ([5]; Compound S 4 mg/kg treatment group): no any obvious body weight loss
